Test results taken from ChEMBL document CHEMBL4715747 (Eur J Med Chem, 2016).
pIC50: −log10 of the molar value. The source made the active and inactive calls. The rule behind the calls is not given here.

Legend:
[1] = test system: H22; test: Antitumor activity against mouse H22 cells transplanted in Kunming mouse assessed as tumor growth inhibition at 80 mg/kg/day, iv administered 5 days per week for 2 weeks relative to treated combination of 5-FU and Ube; assay type: functional, organism-based
[2] = Prodrug conversion in human plasma assessed as release of active metabolites 5-FU and Ube measured within 30 mins at 37 degC; assay type: ADME, cell-free; conditions: 0.5 h
[3] = test system: KG-1; test: Antiproliferative activity against human KG1 cells after 48 hrs by MTT assay; conditions: KG-1, 48 h
[4] = test system: H22; test: Antitumor activity against 5-FU-resistant mouse H22 cells transplanted in Kunming mouse assessed as tumor growth inhibition at 200 uM/kg/day, po administered for 14 days; assay type: functional, organism-based; conditions: time 14.0 day
[5] = test system: MCF7; test: Antiproliferative activity against human MCF7 cells after 48 hrs by MTT assay; conditions: MCF7, 48 h
[6] = Toxicity in NOD/SCID mouse xenografted with human PLC-PRF-5 cells assessed as change in body weight at 100 to 120 mg/kg, po; assay type: organism-based; conditions: in vivo, dose 100-120 mg/kg
[7] = test system: HUVEC; test: Anti-angiogenesis activity in HUVEC assessed as inhibition of capillary like tube formation at 30 uM incubated for 6 hrs by matrigel based capillary tube formation assay; assay type: functional, Homo sapiens; parameters: scale not given: the % may be the effect or the level left
[8] = test system: H22; test: Antitumor activity against mouse H22 cells transplanted in Kunming mouse assessed as tumor growth inhibition at 80 mg/kg/day, po administered 5 days per week for 2 weeks; assay type: functional, organism-based
[9] = Antiproliferative activity against human 3AO cells after 48 hrs by MTT assay
[10] = test system: HeLa; test: Antiproliferative activity against human HeLa cells after 48 hrs by MTT assay
[11] = Toxicity in BALB/c athymic nude mouse xenografted with human PLC-PRF-5 cells assessed as change in body weight at 20 to 80 mg/kg, iv; assay type: organism-based; conditions: in vivo, dose 20-80 mg/kg
[12] = Antiproliferative activity against human H7402 cells after 48 hrs by MTT assay; conditions: H7402, 48 h
[13] = target: T1, Aminopeptidase N (Sus scrofa, UniProt P15145); test: Inhibition of porcine kidney microsomal CD13 using L-leucine-p-nitroanilide as substrate preincubated for 5 mins followed by substrate addition and measured after 30 mins by microplate reader analysis; assay type: microsomes, Microsome
T1 sequence (P15145 whole entry): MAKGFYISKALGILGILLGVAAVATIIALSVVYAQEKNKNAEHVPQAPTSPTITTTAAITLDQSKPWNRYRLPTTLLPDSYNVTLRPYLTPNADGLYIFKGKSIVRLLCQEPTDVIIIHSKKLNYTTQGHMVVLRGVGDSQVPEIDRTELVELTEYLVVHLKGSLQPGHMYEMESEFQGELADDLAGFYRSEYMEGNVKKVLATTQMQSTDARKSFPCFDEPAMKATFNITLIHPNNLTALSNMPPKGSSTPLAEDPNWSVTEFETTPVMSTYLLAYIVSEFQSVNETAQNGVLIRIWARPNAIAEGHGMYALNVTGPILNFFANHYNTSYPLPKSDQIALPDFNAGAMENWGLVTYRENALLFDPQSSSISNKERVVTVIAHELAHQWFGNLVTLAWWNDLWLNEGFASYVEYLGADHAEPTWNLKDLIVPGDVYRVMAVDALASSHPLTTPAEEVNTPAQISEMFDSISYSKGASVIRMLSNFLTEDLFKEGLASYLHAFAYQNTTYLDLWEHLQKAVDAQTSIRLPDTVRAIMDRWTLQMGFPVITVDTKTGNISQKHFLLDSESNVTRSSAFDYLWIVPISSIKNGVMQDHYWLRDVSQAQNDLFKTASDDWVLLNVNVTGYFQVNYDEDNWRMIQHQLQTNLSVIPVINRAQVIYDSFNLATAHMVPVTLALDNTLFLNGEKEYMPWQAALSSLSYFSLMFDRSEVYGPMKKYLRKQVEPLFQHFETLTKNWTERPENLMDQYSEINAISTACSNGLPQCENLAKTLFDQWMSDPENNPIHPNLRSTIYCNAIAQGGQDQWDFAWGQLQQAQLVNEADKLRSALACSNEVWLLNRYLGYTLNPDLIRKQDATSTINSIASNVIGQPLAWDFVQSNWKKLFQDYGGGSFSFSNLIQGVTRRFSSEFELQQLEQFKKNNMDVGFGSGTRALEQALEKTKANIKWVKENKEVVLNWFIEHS

[14] = test system: H22; test: Antimetastatic activity against mouse H22 cells inoculated in orally dosed Kunming mouse assessed as reduction in lung metastatic nodes administered for 5 days starting from day 11 post inoculation and 2 days of withdrawal measured after 24 days; assay type: functional, organism-based; conditions: dose 80-100 mg/kg, time 5.0 day
[15] = Antiproliferative activity against human ES2 cells after 48 hrs by MTT assay; conditions: ES-2, 48 h
[16] = test system: HUVEC; test: Anti-angiogenesis activity in HUVEC assessed as inhibition of capillary like tube formation incubated for 6 hrs by matrigel based capillary tube formation assay; assay type: functional, cell-based; conditions: Homo sapiens, dose 10-30 µM
[17] = test system: MDA-MB-231; test: cells; conditions: Homo sapiens, MDA-MB-231, 48 h
Description: Antiproliferative activity against human MDA-MB-231 cells after 48 hrs by MTT assay

[18] = test system: A549; test: Antiproliferative activity against human A549 cells after 48 hrs by MTT assay; conditions: A549, 48 h
[19] = Toxicity in Kunming mouse transplanted with mouse H22 cells assessed as change in body weight at 40 to 80 mg/kg/day, po administered 5 days per week for 2 weeks; assay type: organism-based; conditions: in vivo, 336 h, dose 40-80 mg/kg/day
[20] = test system: Aorta; test: Anti-angiogenesis activity in Wistar rat thoracic aortic rings assessed as decrease in number of microvessels sprouting at 20 ug/ml treated every other day for 9 days; assay type: functional, tissue-based; conditions: dose 20.0 µg/ml, time 9.0 day
[21] = test system: H22; test: Antitumor activity against mouse H22 cells transplanted in orally dosed Kunming mouse assessed as tumor growth inhibition administered 5 days per week for 2 weeks; assay type: functional, organism-based; conditions: dose 40-80 mg/kg
[22] = Toxicity in Kunming mouse transplanted with 5-FU-resistant mouse H22 cells assessed as change in body weight at 200 uM/kg/day, po administered daily for 14 days; assay type: organism-based; conditions: in vivo, 336 h, time 14 day
[23] = test system: PLC-PRF-5; test: Antitumor activity against human PLC-PRF-5 cells xenografted in iv dosed BALB/c athymic nude mouse assessed as tumor growth inhibition; assay type: functional, organism-based; conditions: dose 20-80 mg/kg
[24] = test system: HCT-116; test: Antiproliferative activity against human HCT-116 cells after 48 hrs by MTT assay; conditions: HCT-116, 48 h
[25] = Toxicity in Kunming mouse transplanted with mouse H22 cells assessed as side effects at 40 to 80 mg/kg/day, po administered 5 days per week for 2 weeks; assay type: organism-based; conditions: in vivo, 336 h, dose 40-80 mg/kg/day
[26] = test system: HepG2; test: Antiproliferative activity against human HepG2 cells after 48 hrs by MTT assay; conditions: HepG2, 48 h
[27] = test system: PLC-PRF-5; test: Antitumor activity against human PLC-PRF-5 cells xenografted in orally dosed NOD/SCID mouse assessed as tumor growth inhibition; assay type: functional, organism-based; conditions: dose 100-120 mg/kg
[28] = test system: HEL; test: cells; conditions: Homo sapiens, 48 h
Description: Antiproliferative activity against human HEL cells after 48 hrs by MTT assay

[29] = test system: PLC-PRF-5; test: Antiproliferative activity against human PLC-PRF-5 cells after 48 hrs by MTT assay; conditions: PLC-PRF-5, 48 h
[30] = test system: PC-3; test: cells; conditions: Homo sapiens, PC-3, 48 h
Description: Antiproliferative activity against human PC-3 cells after 48 hrs by MTT assay

[31] = test system: H22; test: Antitumor activity against mouse H22 cells transplanted in iv dosed Kunming mouse assessed as tumor growth inhibition administered 5 days per week for 2 weeks; assay type: functional, organism-based; conditions: dose 20-80 mg/kg
[32] = test system: H22; test: Antitumor activity against mouse H22 cells transplanted in Kunming mouse assessed as tumor growth inhibition at 20 mg/kg/day, ip administered 5 days per week for 2 weeks; assay type: functional, organism-based
[33] = test system: H22; test: Antitumor activity against mouse H22 cells transplanted in Kunming mouse assessed as tumor growth inhibition at 100 mg/kg/day, po administered 5 days per week for 2 weeks; assay type: functional, organism-based

SMILES	pIC50 [3]	Activity [4]	pIC50 [5]	pIC50 [9]	pIC50 [10]	pIC50 [12]	pIC50 [15]	pIC50 [17]	Activity [20]	pIC50 [24]	pIC50 [26]	pIC50 [28]	pIC50 [29]	pIC50 [30]	other results
CC(C)C[C@H](NC(=O)[C@@H](O)[C@H](N)Cc1ccccc1)C(=O)OCn1cc(F)c(=O)[nH]c1=O.Cl	4.51	Active	4.72	4.59	5.14	4.94	4.64	4.98	Active	4.83	5.13	5.04	4.76	4.61	Activity [1]: Active; Drug metabolism [2]: Metabolite_Detected; Activity [6]: Non-Toxic; Activity [7]: 100%; Activity [8]: Active; Activity [11]: Non-Toxic; pIC50 [13]: 5.16; Activity [14]: Dose-dependent effect; Activity [16]: Dose-dependent effect; pIC50 [18]: 5.25; Activity [19]: Non-Toxic; Activity [21]: Dose-dependent effect; Activity [22]: Non-Toxic; Activity [23]: Dose-dependent effect; Activity [25]: Non-Toxic; Activity [27]: Dose-dependent effect; Activity [31]: Dose-dependent effect
O=c1[nH]cc(F)c(=O)[nH]1 [FLUOROURACIL]	4.08	inactive	4.15	4.22	3.88	4.54	4.03	4.65		4.07	4.87	4.49	4.42	3.97	Activity [32]: Active
CC(C)C[C@H](NC(=O)[C@@H](O)[C@H](N)Cc1ccccc1)C(=O)O [UBENIMEX]	< 3.30		< 3.30	< 3.30	< 3.30	< 3.30	< 3.30	< 3.30	Active	3.50	< 3.30	3.38	< 3.30		Activity ([7]; Homo sapiens): Active
CCCCCOC(=O)Nc1nc(=O)n([C@@H]2O[C@H](C)[C@@H](O)[C@H]2O)cc1F															Activity [33]: Active
